Patent US20240277705A1, “DOSAGE REGIMENS FOR ECUBECTEDIN” (PHARMA MAR S.A., priority 2021, published 2024)

System: patients with advanced solid tumors
Assay: Phase I dose-escalating study, safety and dose limiting toxicities
Type: in vivo
Conditions: for maximum tolerated dose: 3-hour i.v. infusion
Description: Primary Study Objectives • Dose escalation phase: To identify the dose limiting toxicities (DLTs), and to determine the maximum tolerated dose (MTD) and the recommended dose (RD) of PM14 administered intravenously (i.v.) on two days (Day 1 and Day 8) or on Day 1 only, both every three weeks (q3wk) over three hours to patients with advanced solid tumors.
First-in-human, open-label, dose-finding, phase I trial, using a classical 3+3 design followed by a continual reassessment method (CRM) (see Dose Escalation Schedule, below).
Patients will be included in cohorts of a minimum of three or six patients to receive PM14 at successively increasing dose levels, starting at 0.25 mg/m2 for the Days 1 and 8 schedule. For the Day 1 schedule, the starting dose will be 4.5 mg/m^2.
Open-label, dose-escalating, phase I trial of PM14 administered as a 3-hour infusion i.v. every 3 weeks (q3wk) in human patients (pts) with advanced solid tumors, adequate organ function and ECOG PS score of 0-1. Two schedules were explored: Schedule A (Day 1 [D1], Day 8 [D8]) and Schedule B (D1).
Determination of MTD and RD: the MTD will be the lowest dose level explored during dose escalation in which one third or more of evaluable patients develop a DLT in Cycle 1. The CRM could be used to define the RD.
Secondary Endpoints • Safety: patients will be evaluable for safety if they have received at least one partial infusion of PM14. AEs will be graded according to the NCI-CTCAE v.4. Additionally, treatment-related discontinuations and treatment compliance (dose reduction, skipped doses and/or treatment delays due to AEs), will be described. • Pharmacokinetics: PK analyses will be evaluated in plasma and urine by standard non-compartmental analysis (compartmental modeling may be performed if appropriate). Plasma samples for PM14 PK analysis will be obtained in Cycle 1 from all patients, and also in Cycle 2 from patients treated during Step D of the CRM. In addition, the urine produced during Day 1 of Cycle 1 and Cycle 2 will be collected from patients treated during Step D of the CRM. • Pharmacogenetics: the presence or absence of PGt polymorphisms in genes relevant for PM14 disposition (distribution, metabolism and excretion) from a single blood sample collected at any time during the trial (but preferably at the same time as the pre-treatment PK sample on Day 1 of Cycle 1) will be assessed to explain individual variability in main PK parameters. • Pharmacogenomics: this exploratory analysis will be performed in those patients who sign the Informed Consent Form (ICF) for the PGx study. mRNA or protein expression levels of factors involved in DNA repair mechanisms, or related to the mechanism of action of PM14, will be evaluated from available tumor tissue samples obtained at diagnosis or relapse and in cell-free ctDNA. Their mutational status might also be analyzed, if relevant. Their correlation with the clinical response and outcome after treatment will be assessed. • Efficacy: patients will be evaluable for efficacy if they receive at least one complete infusion of PM14 and have at least one clinical or radiological tumor assessment as per RECIST v.1.1 or serum markers, or if they are considered to have failed treatment. Treatment failure will be defined as clinical deterioration, death due to PD or treatment discontinuation due to any treatment-related toxicity before any appropriate tumor assessments have been performed. […]

[1] = Schedule A D1,D8, 3.0 mg/m^2 (n: 9)
[2] = Schedule A D1,D8, <3.0 mg/m^2 (n: 14)
[3] = Schedule A D1,D8, >3.0 mg/m^2 (n: 5)
[4] = Schedule B D1, 4.5 mg/m^2 (n: 6)
[5] = Schedule B D1, 5.6 mg/m^2 (n: 3)

## COc1c(C)cc2c(c1O)[C@@H]1[C@@H]3[C@@H]4SC[C@]5(N[C@H](CO)Cc6c5[nH]c5ccccc65)C(=O)OC[C@@H](c5c6c(c(C)c(OC(C)=O)c54)OCO6)N3[C@@H](O)[C@H](C2)N1C [PM14, ECUBECTEDIN]
3.0 mg/n^2 D1,D8 (A) and 4.5 mg/n^2 D1 (B)
  DLTs at the RDs: No DL-Ts
Schedule A (D1, D8 q3wk)
  maximum tolerated dose: 4.5 mg/m^2
[1]
  ALT increase Gr 1-2, (%): (55.6%)
  ALT increase Gr 3, (%): (11.1%)
  AST increase Gr 1-2, (%): (77.8%)
  Anemia Gr 1-2, (%): (77.8%)
  Anemia Gr 3, (%): (11.1%)
  CPK increase Gr 1-2, (%): (22.2%)
  Diarrhoea Gr 1-2, (%): (11.1%)
  Nausea Gr 1-2, (%): (11.1%)
  Neutropenia Gr 1-2, (%): (11.1%)
  Neutropenia Gr 3, (%): (11.1%)
  Neutropenia Gr 4, (%): (11.1%)
  Vomiting Gr 1-2, (%): (11.1%)
  Vomiting Gr 3, (%): (11.1%)
[2]
  ALT increase Gr 1-2, (%): (35.7%)
  AST increase Gr 1-2, (%): (21.4%)
  Anemia Gr 1-2, (%): (85.7%)
  CPK increase Gr 1-2, (%): (42.9%)
  Constipation Gr 1-2, (%): (7.1%)
  Decreased appetite Gr 1-2, (%): (7.1%)
  Diarrhoea Gr 1-2, (%): (14.3%)
  Fatigue Gr 1-2, (%): (28.6%)
  Nausea Gr 1-2, (%): (42.9%)
  Neutropenia Gr 1-2, (%): (14.3%)
  Vomiting Gr 1-2, (%): (42.9%)
[3]
  ALT increase Gr 1-2, (%): (60.0%)
  ALT increase Gr 3, (%): (40.0%)
  AST increase Gr 1-2, (%): (100.0%)
  Anemia Gr 1-2, (%): (80.0%)
  Anemia Gr 3, (%): (20.0%)
  Constipation Gr 1-2, (%): (60.0%)
  Decreased appetite Gr 1-2, (%): (40.0%)
  Diarrhoea Gr 1-2, (%): (20.0%)
  Fatigue Gr 1-2, (%): (40.0%)
  Fatigue Gr 3, (%): (20.0%)
  Nausea Gr 1-2, (%): (80.0%)
  Neutropenia Gr 1-2, (%): (20.0%)
  Neutropenia Gr 4, (%): (40.0%)
  Vomiting Gr 1-2, (%): (60.0%)
Schedule A, on D1,D8
  recommended dose (RD): 3.0 mg/n^2
Schedule B (D1 q3wk)
  maximum tolerated dose: 5.6 mg/rn^2
[4]
  ALT increase Gr 1-2, (%): (66.7%)
  ALT increase Gr 3, (%): (33.3%)
  AST increase Gr 1-2, (%): (50.0%)
  AST increase Gr 4, (%): (16.1%)
  Anemia Gr 1-2, (%): (83.3%)
  CPK increase Gr 1-2, (%): (33.3%)
  Decreased appetite Gr 1-2, (%): (16.7%)
  Fatigue Gr 1-2, (%): (50.0%)
  Headache Gr 1-2, (%): (16.7%)
  Nausea Gr 1-2, (%): (50.0%)
  Neutropenia Gr 3, (%): (16.7%)
  Neutropenia Gr 4, (%): (16.7%)
  Vomiting Gr 1-2, (%): (16.7%)
[5]
  ALT increase Gr 1-2, (%): (66.7%)
  ALT increase Gr 4, (%): (33.3%)
  AST increase Gr 1-2, (%): (33.3%)
  AST increase Gr 4, (%): (33.3%)
  Anemia Gr 1-2, (%): (33.3%)
  Anemia Gr 3, (%): (66.7%)
  CPK increase Gr 1-2, (%): (66.7%)
  Fatigue Gr 1-2, (%): (33.3%)
  Febrile neutropenia Gr 4, (%): (33.3%)
  Neutropenia Gr 1-2, (%): (33.3%)
  Neutropenia Gr 3, (%): (33.3%)
  Neutropenia Gr 4, (%): (33.3%)
Schedule B, on D1
  recommended dose (RD): 4.5 mg/n^2
Patients with advanced solid tumors
  tolerability at the RDs: well tolerated
